Results published in PubChem BioAssay (NCI).
“And” between values parts separate entries of the source, which are not always exact repeats. Equal entries are not always repeated.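 48-hour exposure; five concentrations; linearly interpolated endpoints. The concentration for 50% growth inhibition is given as GI50. TGI marks complete inhibition of growth.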

Legend:
Assay in all cases: inhibition of tumour cell growth, NCI panel, 48 h
BT-549 breast = tested on: BT-549 breast
DU-145 prostate = tested on: DU-145 prostate
EKVX NSCLC = tested on: EKVX NSCLC
M14 melanoma = tested on: M14 melanoma
MDA-MB-435 = tested on: MDA-MB-435
NCI-H226 lung = tested on: NCI-H226 lung
OVCAR-3 ovarian = tested on: OVCAR-3 ovarian
PC-3 prostate = tested on: PC-3 prostate
SF-539 CNS = tested on: SF-539 CNS
UACC-62 melanoma = tested on: UACC-62 melanoma

Row | Compound | GI50 (BT-549 breast) [µM] | TGI (BT-549 breast) [µM] | GI50 (DU-145 prostate) [nM] | TGI (DU-145 prostate) [µM] | GI50 (EKVX NSCLC) | TGI (EKVX NSCLC) [µM] | GI50 (M14 melanoma) [nM] | TGI (M14 melanoma) [µM] | GI50 (MDA-MB-435) | TGI (MDA-MB-435) [µM] | GI50 (NCI-H226 lung) | TGI (NCI-H226 lung) | GI50 (OVCAR-3 ovarian) [µM] | TGI (OVCAR-3 ovarian) [µM] | GI50 (PC-3 prostate) [µM] | TGI (PC-3 prostate) [µM] | GI50 (SF-539 CNS) [µM] | TGI (SF-539 CNS) [µM] | GI50 (UACC-62 melanoma) [nM] | TGI (UACC-62 melanoma) [µM]
1 | COc1ccc(-n2cc(-c3cc(OC)c(OC)c(OC)c3)nc2SCc2ccccc2)cc1OC | > 82.7 | > 100 | > 100000 | > 100 | 57.9 µM | > 100 | > 91600 | > 100 | > 100000 nM | > 100 | > 78.7 µM | > 100 µM | > 100 | > 100 | 15.3 | > 100 | > 100 | > 100 | 44900 | > 100
2 | CCN1Cc2c(ccc(F)c2C#N)O[C@@H](C)CNC(=O)c2c(N)nn3ccc1nc23 | 5.98 | 18.5 | 2090 | 15.7 | 5.03 µM | 31.4 | 678 | 11.1 | 2740 nM | 20.2 | 3.79 µM | 18.6 µM | 3.37 | 18.1 | 1.64 | 26.6 | 3.46 | 15.8 | 632 | 3.65
3 | Nc1nc(N)c2c(n1)NC(c1ccc(F)cc1)C1CCc3ccccc3C1=N2 (stereo not drawn) | 3.89 | 16.6 | 7450 | 19.8 | 2.83 µM | 14.6 | 5510 | 18.7 | 2840 nM | 11.6 | 5.97 µM | 24.5 µM | 4.15 | 16.1 | 2.03 | 9.31 | 10.5 | 22.4 | 3760 | 17.7
4 | Cc1cc(Cc2cc(C)cc(C(C)(C)C)c2O)c(O)c(Cc2cc(C)cc(C(C)(C)C)c2O)c1 | – | 10.6 | – | 13.7 | – | 9 | – | 7.26 | – | 8.57 | – | 11.5 µM | – | 10.4 | – | 9.12 | – | 6.54 | – | 4.53
5 | S=c1ssc(Oc2ccccc2)c1Cl | 12.7 | 31.7 | 14500 | 28.9 | 18.4 µM | 38.9 | 18000 | 43.2 | 14200 nM | 27.2 | 27 µM | 73.8 µM | 7.74 | 20.4 | 10.2 | 23.9 | 17.3 | 33.8 | 14000 | 26.9
6 | FC(F)(F)c1ccc(C#Cc2ccccc2C#Cc2ccccc2)cc1 | > 100 | > 100 | 48000 | > 100 | 33.6 µM | > 100 | 44300 | > 100 | 35400 nM | > 100 | 30.1 µM | 99.9 µM | 29.5 | 91.9 | 51.5 | > 100 | 41.4 | > 100 | 92900 | > 100
7 | CCCCCCCCCCC(C(O)c1ccccc1)N1CCCCC1 (stereo not drawn) | 4.57 | 16.5 | 2070 | 6.72 | 2.09 µM | 6.08 | 1870 | 3.47 | 1660 nM | 3.03 | 2.91 µM | 12.4 µM | 1.11 | 2.57 | 3.43 | 12.4 | 2.06 | 3.84 | 2010 | 4.01
8 | O=C1C2C(c3ccccc3)NC(c3ccccc3)C1C(c1ccccc1)NC2c1ccccc1 (stereo not drawn) | – | > 100 | – | > 100 | – | > 100 | – | > 100 | – | > 100 | – | > 100 µM | – | > 100 | – | > 100 | – | > 100 | – | > 100
9 | O=C(O)C1C(C(=O)O)C23CC2(C(=O)O)C2(C(=O)O)CCC3=C3CCCC312 (stereo not drawn) | – | 69.9 | – | 34.1 | – | 54.3 | – | > 100 | – | 49.8 | – | 27.5 µM | – | 11.7 | – | 31.2 | – | 34.8 | – | 23.5
10 | O=C(c1ccccc1)C(Br)C(Br)c1cccc([N+](=O)[O-])c1 (stereo not drawn) | 2 | 3.65 | 2480 | 6.33 | 16.4 µM | 34.5 | 1780 | 3.17 | 2520 nM | 7.19 | 1.74 µM | 3.46 µM | 1.61 | 2.96 | 2.26 | 6.84 | 2.32 | 5.05 | 1790 | 3.56
11 | COc1cc(/C=C/C(=O)c2c(C)nc3ccccc3c2/C=C/c2ccc(C)cc2)cc(OC)c1OC | 2.06 | 4.57 | 1860 | 3.66 | 2.32 µM | 6.32 | 2180 | 5.03 | 1990 nM | 4.55 | 2.18 µM | 6.11 µM | 1.76 | 3.23 | 2.59 | 8.76 | 1.92 | 3.69 | 1600 | 3.08
12 | Cc1cc2[nH]c(=O)c3c4ccccc4cn3c2cc1C | 19.6 | 40.9 | 13900 | 30.1 | 13.6 µM | 31.9 | 13600 | 26.9 | 6000 nM | 19.8 | 15.1 µM | 36.7 µM | 14 | 28.5 | 12 | 25.4 | 11.2 | 27 | 16700 | 31.9
13 | Oc1[nH]c2c(Br)cccc2c1C1=Nc2ccccc2/C1=N/OCCN1CCCC1 | 1.24 | 2.85 | 688 | 4.31 | 1.31 µM and 2.09 µM | > 100 | 1940 | – | 1580 nM and 1910 nM | > 100 | 0.948 µM and 0.708 µM | 3.05 µM and 29.1 µM | 1.48 | 3.45 | 0.824 | – | 0.557 | 2.05 | 973 | 2.45
14 | Cc1ccc2nc(-c3ccccc3)c(N=O)n2c1 | – | > 100 | – | > 100 | – | 79.5 | – | > 100 | – | > 100 | – | > 100 µM | – | > 100 | – | > 100 | – | 92.7 | – | 49.6
